Consider one molecule from paper PMC5218480 (PLoS ONE, 2017).

For this experiment, the system named is MV-4-11 cells. Put plainly: Gene expression microarray analysis (Affymetrix PrimeView) and GSEA. Details: RFU PODN (11730768_x_at) / Fold change /veh PODN (11730768_x_at) / RFU LINC00158 (11744669_a_at) / Fold change /veh LINC00158 (11744669_a_at) / RFU DUSP10 (11751237_a_at) / Fold change /veh DUSP10 (11751237_a_at) / RFU ID3 (11757404_x_at) / Fold change /veh ID3 (11757404_x_at) / RFU PLEKHG5 (11737974_s_at) / Fold change /veh PLEKHG5 (11737974_s_at) / RFU LRRC4B (11730491_at) / Fold change /veh LRRC4B (11730491_at) / RFU GIMAP4 (11747438_a_at) / Fold change /veh GIMAP4 (11747438_a_at) / RFU KRT8 (11758183_x_at) / Fold change /veh KRT8 (11758183_x_at) / RFU CNN1 (11734310_a_at) / Fold change /veh CNN1 (11734310_a_at) / RFU VPS37D (11726825_at) / Fold change /veh VPS37D (11726825_at) / RFU C10orf10 (11716522_x_at) / Fold change /veh C10orf10 (11716522_x_at) / RFU KIR2DL2 /// KIR2DL4 /// KIR2DL5A /// KIR2DL5B /// KIR2DS1 /// KIR2DS2 /// KIR2DS3 /// KIR2DS4 /// KIR3DL3 /// KIR3DL3 /// KIR3DS1 (11738374_at) / Fold change /veh KIR2DL2 /// KIR2DL4 /// KIR2DL5A /// KIR2DL5B /// KIR2DS1 /// KIR2DS2 /// KIR2DS3 /// KIR2DS4 /// KIR3DL3 /// KIR3DL3 /// KIR3DS1 (11738374_at) / RFU C1QL1 (11718748_at) / Fold change /veh C1QL1 (11718748_at) / RFU TMPRSS4 (11747572_a_at) / Fold change /veh TMPRSS4 (11747572_a_at) / RFU HAMP (11756126_x_at) / Fold change /veh HAMP (11756126_x_at) / RFU RNFT2 (11725882_a_at) / Fold change /veh RNFT2 (11725882_a_at) / RFU NR4A2 (11747474_a_at) / Fold change /veh NR4A2 (11747474_a_at) / RFU ABCC12 (11746883_a_at) / Fold change /veh ABCC12 (11746883_a_at) / RFU TMEM136 (11760407_x_at) / Fold change /veh TMEM136 (11760407_x_at) / RFU CLDN22 /// WWC2 (11732394_at) / Fold change /veh CLDN22 /// WWC2 (11732394_at) / RFU HLA-DPB1 (11760878_x_at) / Fold change /veh HLA-DPB1 (11760878_x_at) / RFU SPINT1 (11716480_a_at) / Fold change /veh SPINT1 (11716480_a_at) / RFU GAP43 (11754022_s_at) / Fold change /veh GAP43 (11754022_s_at) / RFU A4GNT (11735810_at) / Fold change /veh A4GNT (11735810_at) / RFU PRB3 (11715151_x_at) / Fold change /veh PRB3 (11715151_x_at) / RFU TUBB4B (11761932_at) / Fold change /veh TUBB4B (11761932_at) / RFU CAPN14 (11732068_a_at) / Fold change /veh CAPN14 (11732068_a_at) / RFU TMCC2 (11721928_a_at) / Fold change /veh TMCC2 (11721928_a_at) / RFU IRGQ (11745062_a_at) / Fold change /veh IRGQ (11745062_a_at) / RFU FAM174B (11720279_a_at) / Fold change /veh FAM174B (11720279_a_at) / RFU TMPRSS4 (11748680_a_at) / Fold change /veh TMPRSS4 (11748680_a_at) / RFU FAM212B (11763350_a_at) / Fold change /veh FAM212B (11763350_a_at) / RFU PLEKHG5 (11743358_a_at) / Fold change /veh PLEKHG5 (11743358_a_at) / RFU ZSCAN30 (11745921_a_at) / Fold change /veh ZSCAN30 (11745921_a_at) / RFU CMKLR1 (11741424_a_at) / Fold change /veh CMKLR1 (11741424_a_at) / RFU LOC101060620 /// MAPK8IP1 (11723275_at) / Fold change /veh LOC101060620 /// MAPK8IP1 (11723275_at) / RFU SPTSSB (11747773_x_at) / Fold change /veh SPTSSB (11747773_x_at) / RFU PRSS12 (11739890_at) / Fold change /veh PRSS12 (11739890_at) / RFU BIN1 (11741810_x_at) / Fold change /veh BIN1 (11741810_x_at) / RFU WNT11 (11732464_a_at) / Fold change /veh WNT11 (11732464_a_at) / RFU C10orf10 (11716521_a_at) / Fold change /veh C10orf10 (11716521_a_at) / RFU C5orf56 (11738089_at) / Fold change /veh C5orf56 (11738089_at) / RFU CYB561 (11721691_x_at) / Fold change /veh CYB561 (11721691_x_at) / RFU ANKRD19P (11752326_a_at) / Fold change /veh ANKRD19P (11752326_a_at) / RFU OR2T12 /// OR2T33 /// OR2T8 (11738714_s_at) / Fold change /veh OR2T12 /// OR2T33 /// OR2T8 (11738714_s_at) / RFU VCAN (11748164_a_at) / Fold change /veh VCAN (11748164_a_at) / RFU JSRP1 (11732532_at) / Fold change /veh JSRP1 (11732532_at) / RFU KRTAP10-11 (11738290_x_at) / Fold change /veh KRTAP10-11 (11738290_x_at) / RFU MYO3A (11730013_a_at) / Fold change /veh MYO3A (11730013_a_at) / RFU EBF3 (11725865_a_at) / Fold change /veh EBF3 (11725865_a_at) / RFU CAMK2N1 (11719241_x_at) / Fold change /veh CAMK2N1 (11719241_x_at) / RFU C5orf56 (11738088_a_at) / Fold change /veh C5orf56 (11738088_a_at) / RFU OLFML3 (11715873_a_at) / Fold change /veh OLFML3 (11715873_a_at) / RFU LOC100653217 /// NTM (11731650_a_at) / Fold change /veh LOC100653217 /// NTM (11731650_a_at) / RFU MAPK11 (11762145_a_at) / Fold change /veh MAPK11 (11762145_a_at) / RFU FIZ1 (11724087_x_at) / Fold change /veh FIZ1 (11724087_x_at) / RFU OASL (11726364_x_at) / Fold change /veh OASL (11726364_x_at) / RFU SOX15 (11748057_x_at) / Fold change /veh SOX15 (11748057_x_at) / RFU CD79A (11719716_a_at) / Fold change /veh CD79A (11719716_a_at) / RFU HIST1H1D (11736915_at) / Fold change /veh HIST1H1D (11736915_at) / RFU CASKIN2 (11723855_a_at) / Fold change /veh CASKIN2 (11723855_a_at) / RFU LOC730098 (11760151_x_at) / Fold change /veh LOC730098 (11760151_x_at) / RFU OR4N2 (11742367_at) / Fold change /veh OR4N2 (11742367_at) / RFU PRRT2 (11749266_a_at) / Fold change /veh PRRT2 (11749266_a_at) / RFU SNX32 (11753110_a_at) / Fold change /veh SNX32 (11753110_a_at) / RFU CDHR5 (11726645_a_at) / Fold change /veh CDHR5 (11726645_a_at) / RFU RCAN1 (11760418_a_at) / Fold change /veh RCAN1 (11760418_a_at) / RFU FAM167A (11723789_a_at) / Fold change /veh FAM167A (11723789_a_at) / RFU FAM26E (11764081_at) / Fold change /veh FAM26E (11764081_at) / RFU ISYNA1 (11749810_s_at) / Fold change /veh ISYNA1 (11749810_s_at) / RFU ACY1 (11761880_at) / Fold change /veh ACY1 (11761880_at) / RFU 11764098_at / Fold change /veh 11764098_at / RFU SAMD14 (11745864_x_at) / Fold change /veh SAMD14 (11745864_x_at) / RFU NPB (11741838_a_at) / Fold change /veh NPB (11741838_a_at) / RFU TMPRSS6 (11731388_a_at) / Fold change /veh TMPRSS6 (11731388_a_at) / RFU KRTAP10-2 (11738614_at) / Fold change /veh KRTAP10-2 (11738614_at) / RFU ARHGAP8 /// PRR5-ARHGAP8 (11727945_x_at) / Fold change /veh ARHGAP8 /// PRR5-ARHGAP8 (11727945_x_at) / RFU KRTAP5-7 /// NADSYN1 (11734609_at) / Fold change /veh KRTAP5-7 /// NADSYN1 (11734609_at) / RFU RASL12 (11751679_a_at) / Fold change /veh RASL12 (11751679_a_at) / RFU CDKN2B (11736163_a_at) / Fold change /veh CDKN2B (11736163_a_at) / RFU PRF1 (11729649_at) / Fold change /veh PRF1 (11729649_at) / RFU, ZNF638 /// ZNF638-IT1 / Fold change vs veh, ZNF638 /// ZNF638-IT1 / RFU, PANK3 / Fold change vs veh, PANK3 / RFU, SH3YL1 / Fold change vs veh, SH3YL1 / RFU, ZEB2 / Fold change vs veh, ZEB2 / RFU, NRIP1 / Fold change vs veh, NRIP1 / RFU, PTTG1IP / Fold change vs veh, PTTG1IP / RFU, CAPN2 / Fold change vs veh, CAPN2 / RFU, MED14 / Fold change vs veh, MED14 / RFU, SNORA58 / Fold change vs veh, SNORA58 / RFU, C1orf63 / Fold change vs veh, C1orf63 / RFU, LRRFIP1 / Fold change vs veh, LRRFIP1 / RFU, NDUFAF7 / Fold change vs veh, NDUFAF7 / RFU, SLC12A2 / Fold change vs veh, SLC12A2 / RFU, IBTK / Fold change vs veh, IBTK / RFU, ESF1 / Fold change vs veh, ESF1 / Fold change vs veh, TMEM50B / RFU, TAOK1 / Fold change vs veh, TAOK1 / RFU, ACBD3 / Fold change vs veh, ACBD3 / RFU, TMA16 / Fold change vs veh, TMA16 / RFU, RWDD3 / Fold change vs veh, RWDD3 / RFU, BCAT1 / Fold change vs veh, BCAT1 / RFU, EDEM3 / Fold change vs veh, EDEM3 / RFU, TMEM33 / Fold change vs veh, TMEM33 / RFU, WDR75 / Fold change vs veh, WDR75 / RFU, AHCTF1 / Fold change vs veh, AHCTF1 / RFU, TFRC / Fold change vs veh, TFRC / RFU, ZDHHC17 / Fold change vs veh, ZDHHC17 / RFU, NOM1 / Fold change vs veh, NOM1 / RFU, ARL8B / Fold change vs veh, ARL8B / RFU, ZBTB11 / Fold change vs veh, ZBTB11 / RFU, TAMM41 / Fold change vs veh, TAMM41 / RFU, KIAA1704 /// LOC100996395 / Fold change vs veh, KIAA1704 /// LOC100996395 / RFU, ING1 / Fold change vs veh, ING1 / RFU, TRMT61B / Fold change vs veh, TRMT61B / RFU, FUBP3 / Fold change vs veh, FUBP3 / RFU, TP53 / Fold change vs veh, TP53 / RFU, TNKS2 / Fold change vs veh, TNKS2 / RFU, ZFP14 / Fold change vs veh, ZFP14 / RFU, ACTR2 / Fold change vs veh, ACTR2 / RFU, PPP3R1 / Fold change vs veh, PPP3R1 / RFU, PIK3R1 / Fold change vs veh, PIK3R1 / RFU, HNRNPA1 / Fold change vs veh, HNRNPA1 / RFU, RNF170 / Fold change vs veh, RNF170 / RFU, ZNF28 / Fold change vs veh, ZNF28 / RFU, RNGTT / Fold change vs veh, RNGTT / RFU, OGT / Fold change vs veh, OGT / RFU, BRD1 / Fold change vs veh, BRD1 / RFU, MARS / Fold change vs veh, MARS / RFU, ZNF655 / Fold change vs veh, ZNF655 / RFU, FAHD1 / Fold change vs veh, FAHD1 / RFU, BDP1 / Fold change vs veh, BDP1 / RFU, LRRCC1 / Fold change vs veh, LRRCC1 / RFU, ARID1A / Fold change vs veh, ARID1A / RFU, ZNF146 / Fold change vs veh, ZNF146 / RFU, ZNF330 / Fold change vs veh, ZNF330 / RFU, GPN3 / Fold change vs veh, GPN3 / RFU, C9orf123 / Fold change vs veh, C9orf123 / RFU, N4BP2L2 / Fold change vs veh, N4BP2L2 / RFU, ARFIP1 / Fold change vs veh, ARFIP1 / RFU, FAM179B / Fold change vs veh, FAM179B / RFU, BCL10 / Fold change vs veh, BCL10 / RFU, UHRF1BP1L / Fold change vs veh, UHRF1BP1L / RFU, BET1 / Fold change vs veh, BET1 / RFU, CNOT2 / Fold change vs veh, CNOT2 / RFU, ZNF268 / Fold change vs veh, ZNF268 / Fold change vs veh, ZNF507 / RFU, DGCR2 / Fold change vs veh, DGCR2 / RFU, WDSUB1 / Fold change vs veh, WDSUB1 / Fold change vs veh, HSP90B1 /// MIR3652 / RFU, ADSS / Fold change vs veh, ADSS / RFU, GK / Fold change vs veh, GK / RFU, ZNF148 / Fold change vs veh, ZNF148 / RFU, TAF9 / Fold change vs veh, TAF9 / RFU, SLC1A5 / Fold change vs veh, SLC1A5 / RFU, SLMO2 / Fold change vs veh, SLMO2 / RFU, ABCC4 / Fold change vs veh, ABCC4 / RFU, LOC101060439 /// RAP1B / Fold change vs veh, LOC101060439 /// RAP1B / RFU, RFX7 / Fold change vs veh, RFX7 / RFU, GTPBP10 / Fold change vs veh, GTPBP10 / RFU, CNEP1R1 / Fold change vs veh, CNEP1R1 / RFU, BIVM-ERCC5 /// ERCC5 / Fold change vs veh, BIVM-ERCC5 /// ERCC5 / RFU, ILF3 / Fold change vs veh, ILF3 / RFU 11762660_at / Fold change /veh 11762660_at / RFU VCAN (11757783_s_at) / Fold change /veh VCAN (11757783_s_at) / RFU DDX43 (11728927_at) / Fold change /veh DDX43 (11728927_at) / RFU KRT8 (11758188_x_at) / Fold change /veh KRT8 (11758188_x_at) / RFU NKD1 (11759106_at) / Fold change /veh NKD1 (11759106_at) / RFU SRD5A1 (11742802_a_at) / Fold change /veh SRD5A1 (11742802_a_at) / RFU TPSAB1 /// TPSB2 (11721975_s_at) / Fold change /veh TPSAB1 /// TPSB2 (11721975_s_at) / RFU GSTM3 (11746129_a_at) / Fold change /veh GSTM3 (11746129_a_at) / RFU IL23R (11737362_x_at) / Fold change /veh IL23R (11737362_x_at) / RFU TMEM51 (11727254_a_at) / Fold change /veh TMEM51 (11727254_a_at) / RFU PIWIL2 (11732686_x_at) / Fold change /veh PIWIL2 (11732686_x_at) / RFU ORM1 (11744905_x_at) / Fold change /veh ORM1 (11744905_x_at) / RFU CCDC152 (11743942_at) / Fold change /veh CCDC152 (11743942_at) / RFU ECM1 (11717891_a_at) / Fold change /veh ECM1 (11717891_a_at) / RFU IL23R (11748794_a_at) / Fold change /veh IL23R (11748794_a_at) / RFU TNFAIP8L3 (11732012_x_at) / Fold change /veh TNFAIP8L3 (11732012_x_at) / RFU MBOAT4 (11741988_at) / Fold change /veh MBOAT4 (11741988_at) / RFU 11764193_at / Fold change /veh 11764193_at / RFU TMEM53 (11763286_at) / Fold change /veh TMEM53 (11763286_at) / RFU MAGEB2 (11727129_at) / Fold change /veh MAGEB2 (11727129_at) / RFU TMEM200A (11744735_a_at) / Fold change /veh TMEM200A (11744735_a_at) / RFU CCDC152 (11751479_a_at) / Fold change /veh CCDC152 (11751479_a_at) / RFU FAM211A (11726209_a_at) / Fold change /veh FAM211A (11726209_a_at) / RFU RGS16 (11746705_a_at) / Fold change /veh RGS16 (11746705_a_at) / RFU VCAN (11755009_s_at) / Fold change /veh VCAN (11755009_s_at) / RFU RHOB (11743442_s_at) / Fold change /veh RHOB (11743442_s_at) / RFU RGS16 (11720943_a_at) / Fold change /veh RGS16 (11720943_a_at) / RFU RGS16 (11720944_at) / Fold change /veh RGS16 (11720944_at) / RFU, VPS4B / Fold change vs veh, VPS4B / RFU, CREB1 / Fold change vs veh, CREB1 / RFU, DNAJC13 / Fold change vs veh, DNAJC13 / RFU, GNAQ / Fold change vs veh, GNAQ / RFU, CDK5R1 / Fold change vs veh, CDK5R1 / RFU, ZRANB3 / Fold change vs veh, ZRANB3 / RFU, CUL4A / Fold change vs veh, CUL4A / RFU, CCNY / Fold change vs veh, CCNY / RFU, UFL1 / Fold change vs veh, UFL1 / RFU, COG3 / Fold change vs veh, COG3 / RFU, DIAPH2 / Fold change vs veh, DIAPH2 / RFU, SKA2 / Fold change vs veh, SKA2 / RFU, AFF3 / Fold change vs veh, AFF3 / RFU, LMF1 / Fold change vs veh, LMF1 / RFU, IPO11 / Fold change vs veh, IPO11 / RFU, DFFB / Fold change vs veh, DFFB / RFU, FOXP1 / Fold change vs veh, FOXP1 / RFU, CARD8 / Fold change vs veh, CARD8 / RFU, STRN3 / Fold change vs veh, STRN3 / RFU, ADK / Fold change vs veh, ADK / RFU, RASSF2 / Fold change vs veh, RASSF2 / RFU, WIPF1 / Fold change vs veh, WIPF1 / RFU, LARP1B / Fold change vs veh, LARP1B / RFU, RASA1 / Fold change vs veh, RASA1 / RFU, RB1 / Fold change vs veh, RB1 / RFU, PPFIA1 / Fold change vs veh, PPFIA1 / RFU, MAT2A / Fold change vs veh, MAT2A / RFU, CCT5 / Fold change vs veh, CCT5 / RFU, WDR92 / Fold change vs veh, WDR92 / RFU, CUX1 / Fold change vs veh, CUX1 / RFU, TTC7A / Fold change vs veh, TTC7A / RFU, TMEM135 / Fold change vs veh, TMEM135 / RFU, DEPTOR / Fold change vs veh, DEPTOR / RFU, CPM / Fold change vs veh, CPM / RFU, DNAJB6 / Fold change vs veh, DNAJB6 / RFU, CACNA2D3 / Fold change vs veh, CACNA2D3 / RFU, DTX4 / Fold change vs veh, DTX4 / RFU, TFCP2 / Fold change vs veh, TFCP2 / RFU, GMCL1 /// GMCL1P1 / Fold change vs veh, GMCL1 /// GMCL1P1 / RFU, AEBP2 / Fold change vs veh, AEBP2 / RFU, SNHG1 /// SNORD22 /// SNORD25 /// SNORD26 /// SNORD27 /// SNORD28 /// SNORD29 /// SNORD31 / Fold change vs veh, SNHG1 /// SNORD22 /// SNORD25 /// SNORD26 /// SNORD27 /// SNORD28 /// SNORD29 /// SNORD31 / Fold change (Aza/veh), C12orf56 (ProbeSet 11735607_a_at) / Fold change (ACY-1035/veh), C12orf56 (ProbeSet 11735607_a_at) / Fold change (Aza/veh), FGFR1OP (ProbeSet 11751329_s_at) / Fold change (ACY-1035/veh), FGFR1OP (ProbeSet 11751329_s_at) / Fold change (Aza/veh), VPS36 (ProbeSet 11739960_a_at) / Fold change (ACY-1035/veh), VPS36 (ProbeSet 11739960_a_at) / RFU SYPL1 (11715823_x_at) / Fold change /veh SYPL1 (11715823_x_at) / RFU IGFBP7 (11715501_s_at) / Fold change /veh IGFBP7 (11715501_s_at) / RFU REEP3 (11722064_at) / Fold change /veh REEP3 (11722064_at) / RFU IGLL1 (11728026_x_at) / Fold change /veh IGLL1 (11728026_x_at): dose or concentration left out as unconfirmed. The note with it: MV-4-11 cells, 48 hours. Type of experiment: cell-based, human.

For `Nc1ccc(-c2cccs2)cc1NC(=O)c1ccc2c(c1)cc(C1CC1)n2CCN1CCOCC1` [ACY-1035], the “Fold change /veh FAM167A (11723789_a_at)” value was determined as 1.14.
